Earlier results as cited in paper PMC6384891, “An automated microliter-scale high-throughput screening system (MSHTS) for real-time monitoring of protein aggregation using quantum-dot nanoprobes” (Scientific Reports, 2019).

Test system: Aβ
Parameters: method as in PMID 15511626
Settings: cited from earlier work

For Tannic acid, the “inhibition of Aβ aggregation (in words)” value is given as “dose-dependently inhibited”.
